The source made the active and inactive calls. The calls are words filed in the database; no cut-off is given here.
Key:
[1] = biological target: T1, Protein deacetylase HDAC6 (Homo sapiens) (UniProt Q9UBN7); assay: Inhibition of HDAC6 in human U-266 cells assessed as reduction in STAT3 phosphorylation measured after 4 to 48 hrs by immunoblot assay; type: cell-based; details: time hrs 4-48
T1 sequence (whole entry): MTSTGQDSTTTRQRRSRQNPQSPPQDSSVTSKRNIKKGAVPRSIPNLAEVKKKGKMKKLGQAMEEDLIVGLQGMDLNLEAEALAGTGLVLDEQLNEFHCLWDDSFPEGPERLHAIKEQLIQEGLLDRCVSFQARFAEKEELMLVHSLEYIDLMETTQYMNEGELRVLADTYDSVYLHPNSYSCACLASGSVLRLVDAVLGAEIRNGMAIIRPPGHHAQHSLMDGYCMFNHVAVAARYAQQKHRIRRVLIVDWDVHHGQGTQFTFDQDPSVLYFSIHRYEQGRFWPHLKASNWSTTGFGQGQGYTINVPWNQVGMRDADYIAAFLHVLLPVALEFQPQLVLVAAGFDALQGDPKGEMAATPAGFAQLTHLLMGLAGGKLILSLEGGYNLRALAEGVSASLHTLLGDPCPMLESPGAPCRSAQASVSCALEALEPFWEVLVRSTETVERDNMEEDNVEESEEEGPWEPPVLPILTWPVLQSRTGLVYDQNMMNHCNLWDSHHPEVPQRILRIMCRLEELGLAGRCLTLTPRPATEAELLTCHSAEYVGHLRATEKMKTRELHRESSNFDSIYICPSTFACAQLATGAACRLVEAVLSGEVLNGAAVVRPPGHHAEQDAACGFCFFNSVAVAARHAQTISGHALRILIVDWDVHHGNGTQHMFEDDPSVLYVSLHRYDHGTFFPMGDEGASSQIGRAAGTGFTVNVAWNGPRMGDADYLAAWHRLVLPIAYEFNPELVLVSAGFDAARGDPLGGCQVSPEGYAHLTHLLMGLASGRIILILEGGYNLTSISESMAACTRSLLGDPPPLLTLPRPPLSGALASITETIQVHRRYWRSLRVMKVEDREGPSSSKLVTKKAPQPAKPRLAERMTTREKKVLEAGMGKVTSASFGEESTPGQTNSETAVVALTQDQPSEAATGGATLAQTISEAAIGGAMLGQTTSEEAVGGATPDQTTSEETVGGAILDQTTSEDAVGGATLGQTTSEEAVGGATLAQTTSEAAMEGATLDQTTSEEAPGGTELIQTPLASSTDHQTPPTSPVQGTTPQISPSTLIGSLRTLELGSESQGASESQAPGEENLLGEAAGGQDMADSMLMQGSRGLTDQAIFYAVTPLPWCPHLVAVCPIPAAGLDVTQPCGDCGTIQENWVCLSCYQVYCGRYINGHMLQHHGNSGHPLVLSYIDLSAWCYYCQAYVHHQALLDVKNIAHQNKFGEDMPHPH

[2] = biological target: T1, Protein deacetylase HDAC6 (Homo sapiens); assay: Inhibition of HDAC6 in human MEC1 cells assessed as reduction in STAT3 phosphorylation measured after 30 hrs by immunoblot assay; type: cell-based
[3] = test system: Ca9-22; assay: Antiproliferative activity against human Ca9-22 cells assessed as reduction in cell viability measured after 48 hrs by alamar blue dye based spectrofluorometry; type: functional; details: Ca9-22, 48 h
[4] = biological target: T2, Protein deacetylase HDAC6 (Homo sapiens, UniProt Q9UBN7); assay: Inhibition of full length N-terminal GST-tagged human HDAC6 expressed in baculovirus expression system using ZMAL as substrate incubated for 90 mins by fluorescence assay
T2 sequence (Q9UBN7 whole entry): T1 sequence (whole entry)

[5] = test system: OE33; assay: Antiproliferative activity against human OE33 cells assessed as reduction in cell viability measured after 72 hrs by MTT assay; type: functional, cell-based; details: OE33, 72 h
[6] = Mutagenicity in Salmonella typhimurium TA100 at 24 to 40 uM measured after 90 mins in presence of S9 fraction by Ames test; type: toxicity, subcellular; details: salmonella enterica subsp. enterica serovar typhimurium, s9, 1.5 h, dose 24-40 µM
[7] = biological target: T1, Protein deacetylase HDAC6 (Homo sapiens); assay: Inhibition of HDAC6 in human NB-4 cells assessed as increase in tubulin acetylation at 10 uM measured after 24 to 48 hrs by Western blot analysis; type: cell-based; details: time hrs 24-48
[8] = test system: U-937; assay: Cell cycle arrest in human U-937 cells assessed as increase in accumulation at pre-G1 phase at 10 uM measured after 48 hrs by propidium iodide staining based flow cytometry; type: functional
[9] = test system: Histone deacetylase; assay: Inhibition of HDAC in human NB-4 cells assessed as effect on histone acetylation at 10 uM measured after 24 to 48 hrs by Western blot analysis; type: cell-based; details: nb-4, 10 µM, time 24-48 hrs
[10] = biological target: Histone deacetylase 1 (Homo sapiens, UniProt Q13547); assay: Inhibition of full length C-terminal His/FLAG-tagged human HDAC1 expressed in baculovirus expression system using ZMAL as substrate incubated for 90 mins by fluorescence assay
Histone deacetylase 1, sequence (Q13547 whole entry): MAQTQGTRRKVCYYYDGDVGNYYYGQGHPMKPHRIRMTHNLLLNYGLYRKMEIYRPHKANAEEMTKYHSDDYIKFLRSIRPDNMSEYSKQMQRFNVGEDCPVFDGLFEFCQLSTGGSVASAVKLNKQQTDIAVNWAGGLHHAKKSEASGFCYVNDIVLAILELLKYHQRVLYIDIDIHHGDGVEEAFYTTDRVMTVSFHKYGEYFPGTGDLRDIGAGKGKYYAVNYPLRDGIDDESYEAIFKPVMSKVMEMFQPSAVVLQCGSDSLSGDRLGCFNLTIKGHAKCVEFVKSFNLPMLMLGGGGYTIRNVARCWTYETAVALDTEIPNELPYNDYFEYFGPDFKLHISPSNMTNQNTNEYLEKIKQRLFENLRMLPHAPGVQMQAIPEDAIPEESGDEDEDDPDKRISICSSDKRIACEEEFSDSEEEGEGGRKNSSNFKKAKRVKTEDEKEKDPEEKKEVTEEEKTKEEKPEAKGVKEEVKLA

[11] = Cytotoxicity against mouse NIH3T3 cells assessed as reduction in cell viability measured after 24 hrs by neutral red uptake assay; type: cell-based; details: read-out: TC50
[12] = test system: NB-4; assay: Induction of apoptosis in human NB-4 cells assessed as increase in cleaved PARP expression at 10 uM measured after 24 to 48 hrs by Western blot analysis; type: functional, cell-based; details: time hrs 24-48
[13] = organism: Homo sapiens; assay: Selectivity ratio of IC50 for full length C-terminal His/FLAG-tagged human HDAC1 expressed in baculovirus expression system to IC50 full length N-terminal GST-tagged human HDAC6 expressed in baculovirus expression system
[14] = test system: NB-4; assay: Cell cycle arrest in human NB-4 cells at 5 to 10 uM measured after 48 hrs by propidium iodide staining based flow cytometry; type: functional; details: dose microM 5-10, time 48.0 hrs
[15] = biological target: T3, Histone deacetylase 8 (Homo sapiens, UniProt Q9BY41); assay: Inhibition of human recombinant HDAC8 expressed in Escherichia coli using Fluor de Lys substrate preincubated for 15 mins followed by substrate addition and measured after 60 mins by fluorescence assay
T3 sequence (Q9BY41 whole entry): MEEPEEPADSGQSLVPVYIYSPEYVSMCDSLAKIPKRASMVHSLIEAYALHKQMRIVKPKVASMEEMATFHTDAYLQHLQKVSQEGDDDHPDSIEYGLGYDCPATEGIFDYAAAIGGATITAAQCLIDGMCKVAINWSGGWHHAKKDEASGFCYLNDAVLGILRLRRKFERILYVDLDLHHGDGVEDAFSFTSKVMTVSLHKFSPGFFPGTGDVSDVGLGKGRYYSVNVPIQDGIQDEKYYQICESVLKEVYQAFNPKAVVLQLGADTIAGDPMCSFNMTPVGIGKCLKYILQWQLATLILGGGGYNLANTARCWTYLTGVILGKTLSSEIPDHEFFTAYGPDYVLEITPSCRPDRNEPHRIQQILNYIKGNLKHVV

[16] = test system: U266B; assay: Induction of apoptosis in human U266B cells at 25 to 50 uM measured after 48 hrs by Annexin-V/propidium iodide staining based flow cytometry; type: functional, cell-based; details: dose microM 25-50, time 48.0 hrs
[17] = Antiproliferative activity against human U266B cells assessed as reduction in cell viability measured after 24 to 48 hrs by alamar blue dye based fluorescence assay; type: functional
[18] = Mutagenicity in Salmonella typhimurium TA100 at 24 to 40 uM measured after 90 mins in absence of S9 fraction by Ames test; type: toxicity; details: salmonella enterica subsp. enterica serovar typhimurium, s9, 1.5 h, dose 24-40 µM
[19] = Antiproliferative activity against human TR-146 cells assessed as reduction in cell viability measured after 48 hrs by alamar blue dye based spectrofluorometry; type: functional; details: TR146, 48 h
[20] = Mutagenicity in Salmonella typhimurium TA98 at 8 to 160 uM measured after 90 mins in presence of S9 fraction by Ames test; type: toxicity, subcellular; details: salmonella enterica subsp. enterica serovar typhimurium, s9, 1.5 h, dose 8-160 µM
[21] = organism: Homo sapiens; assay: Selectivity ratio of IC50 for human recombinant HDAC8 expressed in Escherichia coli to IC50 full length N-terminal GST-tagged HDAC6 expressed in baculovirus expression system
[22] = Mutagenicity in Salmonella typhimurium TA98 at 8 to 160 uM measured after 90 mins in absence of S9 fraction by Ames test; type: toxicity; details: salmonella enterica subsp. enterica serovar typhimurium, s9, 1.5 h, dose 8-160 µM
[23] = biological target: T1, Protein deacetylase HDAC6 (Homo sapiens); assay: Inhibition of HDAC6 in human MEC1 cells assessed as reduction in STAT3 phosphorylation at 5 to 10 uM measured after 30 hrs by immunoblot assay; type: cell-based; details: dose microM 5-10, time 30.0 hrs
[24] = biological target: T1, Protein deacetylase HDAC6 (Homo sapiens); assay: Inhibition of HDAC6 in human U-266 cells assessed as reduction in STAT3 phosphorylation at 25 uM measured after 4 to 48 hrs by immunoblot assay; type: cell-based; details: time hrs 4-48
[25] = test system: KYSE-520 cell line; assay: Antiproliferative activity against human KYSE520 cells assessed as reduction in cell viability measured after 48 hrs by alamar blue dye based spectrofluorometry; type: functional; details: KYSE-520, 48 h
[26] = test system: NB-4; assay: Cell cycle arrest in human NB-4 cells at 5 to 10 uM measured after 24 to 48 hrs by propidium iodide staining based flow cytometry; type: functional; details: dose microM 5-10, time hrs 24-48
[27] = Mutagenicity in Salmonella typhimurium TA100 at 8 uM measured after 90 mins in absence of S9 fraction by Ames test; type: toxicity; details: salmonella enterica subsp. enterica serovar typhimurium, s9, 1.5 h
[28] = test system: U-937; assay: Cell cycle arrest in human U-937 cells assessed as reduction in accumulation at S-phase at 10 uM measured after 24 to 48 hrs by propidium iodide staining based flow cytometry; type: functional; details: time hrs 24-48
[29] = Mutagenicity in Salmonella typhimurium TA100 at 8 uM measured after 90 mins in presence of S9 fraction by Ames test; type: toxicity, subcellular; details: salmonella enterica subsp. enterica serovar typhimurium, s9, 1.5 h
[30] = test system: KYSE-520 cell line; assay: Induction of apoptosis human KYSE520 cells at 30 to 100 uM measured after 48 hrs by Annexin-V/propidium iodide staining based assay; type: functional, cell-based; details: dose microM 30-100, time 48.0 hrs

Row | SMILES | IC50 [3] | IC50 [4] | IC50 [5] | Activity [6] | inhibition [7] | inhibition (INH) [9] | IC50 [10] | CC50 at 24 h [11] | Activity [12] | Ratio IC50 [13] | IC50 [15] | IC50 [17] | Activity [18] | IC50 [19] | Activity [20] | Activity [22] | IC50 [25] | Activity [26] | also measured
1 | O=C(NO)c1ccc(COC(=O)N2CCC3(CC2)CN(Cc2ccccc2)c2ccccc23)cc1 | > 1000 µM | 0.0485 µM | 37.8 µM | Toxic | Active | Not Active | 6.8 µM | 40 µM | Active | 140 | 3.19 µM | 20.2 µM | Toxic | 133 µM | – | – | – | – | inhibition [1]: Dose-dependent effect; inhibition [2]: Dose-dependent effect; Activity [8]: Active; Activity [14]: Active; Activity [16]: Active
2 | O=C(NO)c1ccc(CNC(=O)N2CCC3(CC2)CN(Cc2ccccc2)c2ccccc23)cc1 | 55 µM | 0.11 µM | – | – | – | – | 3.6 µM | – | – | 33 | 2.48 µM | 59.4 µM | – | > 1000 µM | – | – | – | – | –
3 | CN1CC2(CCN(Cc3ccc(C(=O)NO)cc3)CC2)c2ccccc21 | > 1000 µM | 0.264 µM | 17.7 µM | Toxic | – | – | 22.4 µM | 24 µM | – | 85 | 1.91 µM | – | Toxic | > 1000 µM | Non-Toxic | Non-Toxic | 197 µM | – | Ratio IC50 [21]: 7; inhibition [23]: Active; inhibition [24]: Active
4 | O=C(NO)c1ccc(CC(=O)N2CCC3(CC2)CN(Cc2ccccc2)c2ccccc23)cc1 | > 1000 µM | 0.227 µM | 13.8 µM | – | Active | Not Active | 10.2 µM | – | Active | 45 | – | – | – | 54 µM | – | – | 33.8 µM | Active | –
5 | O=C(NO)c1ccc(CN2CCC3(CC2)CN(Cc2ccccc2)c2ccccc23)cc1 | 19 µM | 0.561 µM | 5.56 µM | – | – | – | 6.5 µM | 40 µM | Active | 12 | – | – | – | 18 µM | Non-Toxic | Non-Toxic | 12.8 µM | Active | Activity [27]: Toxic; Activity [28]: Active; Activity [29]: Toxic; Activity [30]: Active
